Experimental data: patent publication US7902375B2, “5-phenyl-4-methyl-thiazol-2-yl-amine derivatives as inhibitors of phosphatidylin ositol 3 kinase enzymes (PI13) for treatment of inflammatory diseases” (Novartis AG, priority 2003, dated 2011)

Biological target: T1, human PI3Kγ (recombinant GST-p110γ) (Homo sapiens, UniProt P48736)
T1 construct: Residues 38-1102 of human PI3Kγ are subcloned into the BamH1 and EcoR1 sites of the transfer vector pAcG2T; made in house; host or cells: Sf9 (Spodoptera frugiperda) insect cells, baculovirus
T1 sequence (P48736 38-1102): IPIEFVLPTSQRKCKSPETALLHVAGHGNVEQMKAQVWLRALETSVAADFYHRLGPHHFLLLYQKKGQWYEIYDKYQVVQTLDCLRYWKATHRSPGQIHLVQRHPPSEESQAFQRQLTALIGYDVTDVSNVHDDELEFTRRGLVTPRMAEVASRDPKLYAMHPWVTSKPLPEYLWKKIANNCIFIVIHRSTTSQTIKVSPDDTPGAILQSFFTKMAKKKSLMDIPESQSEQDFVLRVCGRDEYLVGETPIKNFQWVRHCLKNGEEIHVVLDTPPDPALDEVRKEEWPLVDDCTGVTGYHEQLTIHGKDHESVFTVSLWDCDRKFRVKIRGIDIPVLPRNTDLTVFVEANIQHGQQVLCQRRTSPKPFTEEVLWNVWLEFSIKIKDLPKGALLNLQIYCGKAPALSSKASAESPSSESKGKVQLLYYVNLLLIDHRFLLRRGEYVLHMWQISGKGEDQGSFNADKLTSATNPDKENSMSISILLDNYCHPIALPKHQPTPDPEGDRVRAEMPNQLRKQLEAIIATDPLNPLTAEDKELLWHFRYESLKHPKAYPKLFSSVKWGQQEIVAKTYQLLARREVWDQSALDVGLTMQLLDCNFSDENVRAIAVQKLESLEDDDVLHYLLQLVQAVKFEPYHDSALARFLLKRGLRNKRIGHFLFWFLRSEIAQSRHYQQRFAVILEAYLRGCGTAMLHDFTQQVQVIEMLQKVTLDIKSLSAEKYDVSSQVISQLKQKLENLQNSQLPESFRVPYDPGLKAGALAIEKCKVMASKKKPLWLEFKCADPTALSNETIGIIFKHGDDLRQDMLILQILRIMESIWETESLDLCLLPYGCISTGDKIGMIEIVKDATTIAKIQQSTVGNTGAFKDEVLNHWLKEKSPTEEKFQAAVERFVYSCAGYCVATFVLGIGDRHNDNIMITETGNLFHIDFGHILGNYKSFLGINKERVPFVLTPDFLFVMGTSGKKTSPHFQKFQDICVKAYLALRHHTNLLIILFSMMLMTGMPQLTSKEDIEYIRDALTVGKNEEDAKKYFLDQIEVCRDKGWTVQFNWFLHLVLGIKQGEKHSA
Test: in vitro kinase assay (Scintillation Proximity Assay), PI3K gamma isoform
Format: biochemical
Conditions: SPA, phosphatidylinositol substrate, 60 minutes room temperature
Protocol: To express the recombinant protein, Sf9 (Spodoptera frugiperda 9) insect cells are routinely maintained at densities between 3×10^5 and 3×10^6 cells/ml in serum containing TNMFH medium (Sigma). Sf9 cells, at a density of 2×10^6 are infected with human GST-PI3KγΔ34 baculovirus at a multiplicity of infection (m.o.i.) of 1 for 72 hours. The infected cells are harvested by centrifugation at 1400 g for 4 minutes at 4° C. and the cell pellets are frozen at −80° C. […] Cell lysate (supernatant) is added (usually as 50 ml lysate to 1 ml GST resin in 50 ml tubes) and gently rotated on a mixer at 4° C. for 2-3 hours. The unbound flow through sample is collected by centrifugation at 1000 g for 5 minutes at 4° C. using a DENLEY™ centrifuge. The 1 ml GST resin containing bound material is transferred to a 15 ml FALCON™ centrifuge tube for subsequent washing and elution steps. Firstly a series of 3 cycles of washings (mixing by gentle inversion) is performed with 15 ml ice cold wash Buffer A (50 mM Tris-HCl pH 7.5, 1% Triton X-100, 2 mM DTT) interspersed with centrifugation at 1000 g for 5 minutes at 4° C. A final single wash step is performed with 15 ml ice cold wash Buffer B (50 mM Tris-HCl pH 7.5, 2 mM DTT) and then centrifuged at 1000 g for 5 minutes at 4° C. The washed GST resin is finally eluted with 4 cycles of 1 ml ice cold elution buffer (50 mM Tris-HCl pH 7.5, 10 mM reduced glutathione, 2 mM DTT, 150 mM NaCl, 1 mM NaF, 50% ethylene glycol and protease inhibitors) interspersed with centrifugation at 1000 g for 5 minutes at 4° C. Samples are aliquoted and stored at −20° C.
An in vitro kinase assay was established that measures the transfer of the terminal phosphate of adenosine triphosphate to phosphatidylinositol. The kinase reaction is performed in a white 96 well microtitre plate as a Scintillation Proximiy Assay. […] The reaction is started by the addition of 20 μl of enzyme mix (40 mM Tris, 200 mM NaCl, 2 mM EGTA containing recombinant GST-p110γ).

Compound	IC50
CCn1nnc(CNC(=O)Nc2nc(C)c(-c3ccc(S(C)(=O)=O)c(F)c3)s2)n1 [Example 131, 1-(2-Ethyl-2H-tetrazol-5-ylmethyl)-3-[5-(3-fluoro-4-methanesulfonyl-phenyl)-4-methyl-thiazol-2-yl]-urea]	17 nM
Cc1nc(NC(=O)NCc2nnn[nH]2)sc1-c1ccc(S(C)(=O)=O)c(F)c1 [Example 124, 1-[5-(3-Fluoro-4-methanesulfonyl-phenyl)-4-methyl-thiazol-2-yl]-3-(1H-tetrazol-5-ylmethyl)-urea]	7 nM

Second part, the compound after the results:

IC50	Compound
56 nM	Cc1nc(NC(=O)NCCc2nnn(C(C)C)n2)sc1-c1ccc(S(C)(=O)=O)c(F)c1 [Example 150, 1-[5-(3-Fluoro-4-methanesulfonyl-phenyl)-4-methyl-thiazol-2-yl]-3-[2-(2-isopropyl-2H-tetrazol-5-yl)-ethyl]-urea]
17 nM	CCC(C)(C)NC(=O)CCNC(=O)Nc1nc(C)c(-c2ccc(S(C)(=O)=O)c(F)c2)s1 [Example 145, N-(1,1-Dimethyl-propyl)-3-{3-[5-(3-fluoro-4-methanesulfonyl-phenyl)-4-methyl-thiazol-2-yl]-ureido}-propionamide]
18 nM	Cc1nc(NC(=O)NCC(=O)N(C)C(C)C)sc1-c1ccc(S(C)(=O)=O)c(F)c1 [Example 138, 2-{3-[5-(3-Fluoro-4-methanesulfonyl-phenyl)-4-methyl-thiazol-2-yl]-ureido)-N-isopropyl-N-methyl-acetamide]
